The assay deals with T1, TRKA (NTRK1) recombinant His-tagged cytoplasmic domain aa 441-796 (Homo sapiens, UniProt P04629).
T1 construct: aa 441-; 4 nM; 40 uM; 35 min; (NTRK1); 796; His; purchased Invitrogen PV3144
Nature of the assay: Isolated TRK enzyme assay (HTRF KinEASE-TK), PV3144 TrkA. The class given is biochemical. As to conditions: 4 nM enzyme, 40 uM ATP, 35 min, arithmetic mean where more than one reading. On the procedure: Isolated TRK Enzyme assays use the HTRF KinEASE-TK kit (Cisbio Cat#62TK0PEJ) with recombinant His-tagged cytoplasmic domains of each TRK receptor sourced from Invitrogen (see table below). This activity-assay measures the phosphorylation of tyrosine residues within a substrate from the HTRF kit which has been validated by Cisbio for a variety of tyrosine kinases including the TRK receptors.
0.5 mM stock solutions of test compounds are prepared and serially diluted in 100% DMSO. A standard curve using the compound of Example 135 disclosed in WO2005/116035 of 150 uM is also prepared on each test plate. High percentage effect (HPE) is defined by 150 uM (using the compound of Example 135 as disclosed in WO2005/116035) and 0% effect (ZPE) is defined by 100% DMSO. Greiner low volume black plates containing 0.2 ul of serially diluted compound, standard and HPE/ZPE are created using the Bravo nanolitre dispenser.
1× enzyme buffer is prepared from 5× Enzymatic Buffer from the Cisbio KinEASE TK kit using MilliQ water. The buffer is then supplemented with 10 mM MgCl and 2 mM DTT (both from Sigma). In the case of TRKB, the buffer is also supplemented with 125 nM Supplement Enzymatic Buffer (SEB) from the Cisbio kit.
2×FAC of enzyme and 2×FAC ATP diluted in 1× complete enzyme buffer is incubated at room temperature for 20 minutes to preactivate the enzyme. Following this preactivation step, 5 ul/well of enzyme+ATP mix is added using a Multidrop Micro to the assay plate, spotted with 0.2 ul 100% DMSO compound. […]
After the Detection Reagent addition, plates are covered and incubated at room temperature for 60 minutes. HTRF signal is read using an Envision reader, measured as a ratio of emissions at two different wavelengths, 620 nm and 665 nm. […] Test compound data are expressed as percentage inhibition defined by HPE and ZPE values for each plate. […]
Below are TrkA IC50 data generated using the PV3144 TrkA enzyme assay. Where more than one reading was taken, the arithmetic mean is presented.
For orientation: Time-resolved FRET reads energy transfer from a long-lived donor to a nearby acceptor.

Experimental findings from patent US20150250785A1, “Tropomyosin-Related Kinase Inhibitors” (PFIZER LIMITED, priority 2012, published 2015) are described below.

Usually IC50 stands for the midpoint of a concentration-inhibition curve.

T1 sequence (P04629 441-796): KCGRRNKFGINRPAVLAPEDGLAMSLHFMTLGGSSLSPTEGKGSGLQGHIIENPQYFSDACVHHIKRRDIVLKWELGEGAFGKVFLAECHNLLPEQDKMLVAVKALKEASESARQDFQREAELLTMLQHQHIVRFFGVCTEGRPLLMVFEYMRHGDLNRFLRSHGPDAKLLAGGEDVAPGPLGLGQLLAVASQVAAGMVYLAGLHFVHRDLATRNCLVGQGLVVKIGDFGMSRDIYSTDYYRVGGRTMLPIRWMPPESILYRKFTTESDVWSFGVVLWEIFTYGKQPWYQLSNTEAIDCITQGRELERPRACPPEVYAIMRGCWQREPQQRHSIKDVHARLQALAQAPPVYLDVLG

With `CC(C)n1nc(C(=O)c2ccnc(NC(=O)Cc3coc(C4CC4)n3)c2)c2cnccc21` [Example 1, 2-(2-cyclopropyl-1,3-oxazol-4-yl)-N-{4-[(1-isopropyl-1H-pyrazolo[4,3-c]pyridin-3-yl)carbonyl]pyridin-2-yl}acetamide], the concentration for half-maximal inhibition (IC50) came to 21 nM.
The value for `CC(C)n1nc(C(=O)c2ccnc(NC(=O)Cc3ccc(C#N)cc3)c2)c2cnccc21` [Example 2, 2-(4-cyanophenyl)-N-{4-[(1-isopropyl-1H-pyrazolo[4,3-c]pyridin-3-yl)carbonyl]pyridin-2-yl}acetamide] was 20.4 nM; that for `CC(C)c1nc(C(=O)c2ccnc(NC(=O)Cn3ccc(C(F)(F)F)n3)c2)c2cnccn12` [Example 3, N-{4-[(3-isopropylimidazo[1,5-a]pyrazin-1-yl)carbonyl]pyridin-2-yl}-2-[3-(trifluoromethyl)-1H-pyrazol-1-yl]acetamide] was 16.6 nM.
